Data: patent publication US12036298B2, “Skin care composition and method for treating post-acne marks” (The Procter & Gamble Company, priority 2021, dated 2024)
Converted amounts (≈) assume the structure as drawn.

What was measured:
physchem = assay type: physicochemical; settings: for solubility: 20 °C
From the text: (§1) The compositions herein include one or more solubilizers and/or co-solvents to help solubilize the HCA. […] Without being limited by theory, it is believed that the decreased solubility of an HCA at lower pH is due to reduced ability of the HCA to undergo the acid dissociation that forms the conjugate base species observed at higher pH levels. At pH 7, p-coumaric acid exists at approximately 99.6% in its base form; whereas at pH 3, the conjugate base form is only present at approximately […]. As a result of its relatively poor solubility, HCAs can form crystals in an aqueous, low-pH skin care composition. The HCA crystals may impart an undesirable feel to the composition during use (e.g., a rough or grainy feel). HCA crystal formation may also lead to a decrease in the efficacy of the HCA and/or other ingredients in the composition, and/or create an undesirable consumer perception of the skin care composition or manufacturer (e.g., poor quality).
In order to avoid the formation of HCA crystals in the present low-pH compositions, the HCA should have a solubility greater than the intrinsic solubility limit of the composition. […] In this example the HCA would likely crystalize. […] See, Bevill, et al., Polymorphic Cocrystals of Nutraceutical Compound p-Coumaric Acid with Nicotinamide: Characterization, Relative Solid-State Stability, and Conversion to Alternate Stoichiometries, Cryst. Growth Des. 2014, 14, 3, 1438-1448; 2014.

[1] = Fraction of p-coumaric acid present as conjugate base (acid dissociation) by pH; assay type: physicochemical; settings: pH 3
From the text: as §1

| solubility (physchem; pH 3, aqueous buffer) [mg/mL] | solubility (physchem; pH 7, aqueous buffer) [mg/mL] | conjugate base form present [1] | intrinsic solubility (physchem; pH 3.8) [mg/mL] | Molecule |
| --- | --- | --- | --- | --- |
| 4 (≈ 24.4 mM) | ~345 (≈ 2100 mM) | approximately 13.4% | – | O=C(O)/C=C/c1ccc(O)cc1 [p-coumaric acid] |
| – | – | – | 6.8 | hydroxycinnamic acid [HCA] |
